Data taken from patent US10435388B2, “Selective inhibitors of clinically important mutants of the EGFR tyrosine kinase” (CS PHARMATECH LIMITED, priority 2016, dated 2019).
Structures can show the parent of a compound that is named as a salt.

Legend:
Conditions in all cases: cellular proliferation, several runs
A431 cells (WT) = experiment: A431 inhibition assay (cell proliferation), Method B; assay type: cell-based, human
Description: (§1) Cell Proliferation Assays—Method B
A431 Inhibition Assay, (Cell Proliferation).
The rest procedure was conducted in the same manner as described above for H1975 cells.

H1975 cells (DM) = experiment: H1975 inhibition assay (cell proliferation), Method B; assay type: cell-based
Description: as §1
H1975 Inhibition Assay (Cell Proliferation).
(§2) Test compounds were dissolved in DMSO at 30 mM.
(§3) The final concentration was 1,000 cells/well. Add medium only as low control. […] 5% CO2 incubator for 72 hours.
(§4) After 72 hours incubation, remove the plates from incubator and equilibrate at room temperature for 15 minutes. Incubate the CellTiter Glo reagents (Promega, G9243) at 37° C. before the experiment. The buffer was equilibrated to room temperature and used to dissolve the substrate. To determine the cell viability, add 40 μL of CellTiter-Glo reagent into each well to be detected (at 1:1 to culture medium). Then the place the plates at room temperature for 30 min followed by read on EnSpire (PerkinElmer).
(§5) For estimation of IC50, the luminescence readout are transformed to % Inhibition by applying the following equation: The IC50 was then
(§6) [formula] calculated by fitting in XLFit to a four parameters logistic curve.

PC9 cells (SM) = experiment: PC-9 growth inhibition assay (cell proliferation), Method B; assay type: cell-based, human
Description: as §1, §2, §3, §4, §5, §6
PC-9 Growth Inhibition Assay (Cell Proliferation).
The inhibition assay of PC-9 cells was conducted in the same manner as described above for H1975 cells.

| IC50 (A431 cells (WT); Homo sapiens, A-431, 72 h) | IC50 (A431 cells (WT); 72 h) | IC50 (H1975 cells (DM); Homo sapiens, NCI-H1975, 72 h) | IC50 (H1975 cells (DM); 72 h) | IC50 (PC9 cells (SM); Homo sapiens, PC-9, 72 h) | IC50 (PC9 cells (SM); 72 h) | IC50 (A431 cells (WT); 72 h, hydrochloride) | IC50 (H1975 cells (DM); 72 h, hydrochloride) | IC50 (PC9 cells (SM); 72 h, hydrochloride) | Structure (SMILES) |
| --- | --- | --- | --- | --- | --- | --- | --- | --- | --- |
| 1.69 µM | 1.19 µM | 0.137 µM | 0.0927 µM | 0.0626 µM | 0.0524 µM |  |  |  | C=CC(=O)Nc1cc(Nc2nccc(-c3c[nH]c4c(=O)[nH]ccc34)n2)c(OC)cc1N(C)CCN(C)C [Example 22, N-(2-((2-(Dimethylamino)ethyl)(methyl)amino)-4-methoxy-5-((4-(7-oxo-6,7-dihydro-1H-pyrrolo[2,3-c]pyridin-3-yl)pyrimidin-2-yl)amino)phenyl) acrylamide] |
| 6.99 µM |  | 0.103 µM |  | 0.067 µM |  |  |  |  | C=CC(=O)Nc1cc(Nc2ncc(Cl)c(-c3cncc(C(N)=O)c3)n2)c(OC)cc1N(C)CCN(C)C [Example 24, 5-(2-((5-Acrylamido-4-((2-(dimethylamino)ethyl)(methyl)amino)-2-methoxyphenyl)amino)-5-chloropyrimidin-4-yl)nicotinamide hydrochloride] |
| 2.1 µM |  | 0.0198 µM |  | 0.0631 µM |  |  |  |  | C=CC(=O)Nc1cc(Nc2ncc(Cl)c(-c3ccc(NC)nc3)n2)c(OC)cc1N(C)CCN(C)C [Example 25, N-(5-((5-Chloro-4-(6-(methylamino)pyridin-3-yl)pyrimidin-2-yl)amino)-2-((2-(dimethylamino)ethyl)(methyl)amino)-4-methoxyphenyl) acrylamide] |
| 1.03 µM |  | 0.025 µM |  | 0.0373 µM |  |  |  |  | C=CC(=O)Nc1cc(Nc2ncc(Cl)c(-c3ccc(N(C)C)nc3)n2)c(OC)cc1N(C)CCN(C)C [Example 26, N-(5-((5-Chloro-4-(6-(dimethylamino)pyridin-3-yl)pyrimidin-2-yl)amino)-2-((2-(dimethylamino)ethyl)(methyl)amino)-4-methoxyphenyl) acrylamide] |
| 2.23 µM | 1.71 µM |  |  | 0.022 µM | 0.026 µM |  |  |  | C=CC(=O)Nc1cc(Nc2nccc(-c3cnc(NC)c(C(N)=O)c3)n2)c(OC)cc1N(C)CCN(C)C [Example 28, 5-(2-((5-Acrylamido-4-((2-(dimethylamino)ethyl)(methyl)amino)-2-methoxyphenyl)amino)pyrimidin-4-yl)-2-(methylamino)nicotinamide] |
| 0.777 µM |  | 0.00524 µM |  | 0.0237 µM |  |  |  |  | C=CC(=O)Nc1cc(Nc2nccc(-n3nc(C(N)=O)c4c3CCC4)n2)c(OC)cc1N(C)CCN(C)C [Example 29, 1-(2-((5-Acrylamido-4-((2-(dimethylamino)ethyl)(methyl)amino)-2-methoxyphenyl)amino)pyrimidin-4-yl) cyclopenta[c]pyrazole-3-carboxamide] |
| 1.08 µM |  | 0.00392 µM |  | 0.00852 µM |  | 0.784 µM | 0.0032 µM | 0.0119 µM | C=CC(=O)Nc1cc(Nc2nccc(-c3cc(C(N)=O)c4c(c3)c(Cl)cn4C)n2)c(OC)cc1N(C)CCN(C)C [Example 32, 5-(2-((5-Acrylamido-4-((2-(dimethylamino)ethyl)(methyl)amino)-2-methoxyphenyl)amino)pyrimidin-4-yl)-3-chloro-1N-methyl-1H-indole-7-carboxamide hydrochloride] |
| 0.0885 µM |  | 0.00633 µM |  | 0.0099 µM |  |  |  |  | C=CC(=O)Nc1cc(Nc2nccc(-c3c[nH]c(=O)c4c3ccn4C)n2)c(OC)cc1N(C)CCN(C)C [Example 33, N-(2-((2-(Dimethylamino)ethyl)(methyl)amino)-4-methoxy-5-((4-(1N-methyl-7-oxo-6,7-dihydro-1H-pyrrolo[2,3-c]pyridin-4-yl)pyrimidin-2-yl)amino)phenyl) acrylamide] |
| 2.02 µM |  | 0.0294 µM |  | 0.0333 µM |  |  |  |  | C=CC(=O)Nc1cc(Nc2nccc(-n3nc(C(F)F)c4ccccc43)n2)c(OC)cc1N(C)CCN(C)C [Example 35, N-(5-((4-(3-(Difluoromethyl)-1H-indazol-1-yl)pyrimidin-2-yl)amino)-2-((2-(dimethylamino)ethyl)(methyl)amino)-4-methoxyphenyl) acrylamide hydrochloride] |
| 0.588 µM |  | 0.0219 µM |  | 0.022 µM |  |  |  |  | C=CC(=O)Nc1cc(Nc2nccc(-c3cc(C)c[nH]c3=O)n2)c(OC)cc1N(C)CCN(C)C [Example 37, N-(2-((2-(Dimethylamino)ethyl)(methyl)amino)-4-methoxy-5-((4-(5-methyl-2-oxo-1,2-dihydropyridin-3-yl)pyrimidin-2-yl)amino)phenyl) acrylamide] |
| 1.32 µM |  | 0.082 µM |  | 0.0827 µM |  |  |  |  | C=CC(=O)Nc1cc(Nc2ncc(Cl)c(-c3c[nH]c(=O)c(C)c3)n2)c(OC)cc1N(C)CCN(C)C [Example 38, N-(5-((5-Chloro-4-(3-methyl-2-oxo-1,6-dihydropyridin-5-yl)pyrimidin-2-yl)amino)-2-((2-(dimethylamino)ethyl)(methyl)amino)-4-methoxyphenyl) acrylamide] |
| 0.0423 µM |  | 0.00052 µM |  | 0.00074 µM |  |  |  |  | C=CC(=O)Nc1cc(Nc2nccc(-c3c[nH]c4c(C(=O)NC)cccc34)n2)c(OC)cc1N(C)CCN(C)C [Example 39, N-Methyl 3-(2-((5-acrylamido-4-((2-(dimethylamino)ethyl)(methyl)amino)-2-methoxyphenyl)amino)pyrimidin-4-yl)-1H-indole-7-carboxamide] |
| 1.88 µM |  | 0.0435 µM |  | 0.063 µM |  |  |  |  | C=CC(=O)Nc1cc(Nc2nccc(-c3cc(NC)cc4c3ccn4C)n2)c(OC)cc1N(C)CCN(C)C [Example 40, N-(5-(4-(1-Methyl-6-(methylamino)-1H-indol-4-yl)pyrimidin-2-ylamino)-2-(N-(2-(dimethylamino)ethyl)-N-methylamino)-4-methoxyphenyl) acrylamide] |
| 9.07 µM |  | 0.174 µM |  | 0.475 µM |  |  |  |  | C=CC(=O)Nc1cc(Nc2nccc(-n3nc(NS(C)(=O)=O)c4ccccc43)n2)c(OC)cc1N(C)CCN(C)C [Example 44, N-(5-(4-(3-(N-methanesulfonylamido)-1H-indazol-1-yl)pyrimidin-2-ylamino)-2-(N-(2-(dimethylamino)ethyl)-N-methylamino)-4-methoxyphenyl) acrylamide] |
| 0.253 µM |  | 0.116 µM |  | 0.0212 µM |  |  |  |  | C=CC(=O)Nc1cc(Nc2nccc(-c3c[nH]c4c(-c5cc[nH]n5)cccc34)n2)c(OC)cc1N(C)CCN(C)C [Example 46, N-(5-(4-(7-(1H-Pyrazol-3-yl)-1H-indol-3-yl)pyrimidin-2-ylamino)-2-(N-(2-(dimethylamino)ethyl)-N-methylamino)-4-methoxyphenyl) acrylamide] |
| 0.404 µM |  | 0.00879 µM |  | 0.0123 µM |  |  |  |  | C=CC(=O)Nc1cc(Nc2ncc(Cl)c(-c3cc(C(N)=O)cc4c3ccn4C)n2)c(OC)cc1N(C)CCN(C)C [Example 47, 4-(2-(5-Acrylamido-4-((2-(dimethylamino)ethyl)(methyl)amino)-2-methoxyphenylamino)-5-chloropyrimidin-4-yl)-1-methyl-1H-indole-6-carboxamide] |
| 0.265 µM |  | 0.00348 µM |  | 0.00401 µM |  |  |  |  | C=CC(=O)Nc1cc(Nc2nccc(-c3c[nH]c4c(C(C)(C)C)cccc34)n2)c(OC)cc1N(C)CCN(C)C [Example 48, N-(5-(4-(7-t-Butyl-1H-indol-3-yl)pyrimidin-2-ylamino)-2-(N-(2-(dimethylamino)ethyl)-N-methylamino)-4-methoxyphenyl) acrylamide] |
| 0.137 µM |  | 0.00184 µM |  | 0.00061 µM |  |  |  |  | C=CC(=O)Nc1cc(Nc2nccc(-n3cc(C(N)=O)c4ncccc43)n2)c(OC)cc1N(C)CCN(C)C [Example 49, 1-(2-(5-Acrylamido-4-((2-(dimethylamino)ethyl)(methyl)amino)-2-methoxyphenylamino)pyrimidin-4-yl)-1H-pyrrolo[3,2-b]pyridine-3-carboxamide] |
| 0.118 µM |  | 0.00762 µM |  | 0.0144 µM |  |  |  |  | C=CC(=O)Nc1cc(Nc2nccc(-c3c[nH]c4c(N(C)C)nccc34)n2)c(OC)cc1N(C)CCN(C)C [Example 50, N-(5-(4-(7-(Dimethylamino)-1H-pyrrolo[2,3-c]pyridin-3-yl)pyrimidin-2-ylamino)-2-(N-(2-(dimethylamino)ethyl)-N-methylamino)-4-methoxyphenyl) acrylamide] |
| 0.239 µM |  | 0.00301 µM |  | 0.00151 µM |  |  |  |  | C=CC(=O)Nc1cc(Nc2nccc(-n3cc(C(=O)NC)c4ncccc43)n2)c(OC)cc1N(C)CCN(C)C [Example 51, N-Methyl 1-(2-(5-acrylamido-4-((2-(dimethylamino)ethyl)(methyl)amino)-2-methoxyphenylamino)pyrimidin-4-yl)-1H-pyrrolo[3,2-b]pyridine-3-carboxamide] |
| 0.325 µM |  | 0.00406 µM |  | 0.0172 µM |  |  |  |  | C=CC(=O)Nc1cc(Nc2ncc(Cl)c(-n3nc(NC)c4ccccc43)n2)c(OC)cc1N(C)CCN(C)C [Example 52, N-(5-(5-Chloro-4-(3-(methylamino)-1H-indazol-1-yl)pyrimidin-2-ylamino)-2-(N-(2-(dimethylamino)ethyl)-N-methylamino)-4-methoxyphenyl) acrylamide] |
